The numbers were not newly measured in US11167065B2 (EUROCOR TECH GMBH, priority 2009, dated 2021), which cites them from elsewhere.

Read-outs that look alike come from different tables or passages of the source.

Take `CC(=O)O[C@H]1C(=O)[C@@]2(C)[C@H]([C@H](OC(=O)c3ccccc3)[C@]3(O)C[C@H](OC(=O)[C@H](O)[C@@H](NC(=O)c4ccccc4)c4ccccc4)C(C)=C1C3(C)C)[C@]1(OC(C)=O)CO[C@@H]1C[C@@H]2O` (relative stereo) [Paclitaxel, [2aR-[2a,4,4a,6,9(R*,S*),11,12,12a,12b]]-(benzoylamino)-hydroxybenzene propionic acid 6,12b-bis-(acetyloxy)-12-(benzoyloxy)-2a-3,4,4a, 5,6,9, 10, 11, 12, 12a, 12b-dodecahydro-4,11-dihydroxy-4a,8,13,13-tetramethyl-5-oxo-7,11-methano-1H-cyclodeca[3,4]benz[1,2-b]oxet-9-yl ester)]: the Solubility result runs as follows: (in dimethyl sulfoxide (DMSO), methanol, anhydrous ethanol) “highly soluble”; (in water) “comparatively poorly soluble”.
